Data taken from the NIST ThermoML archive (doi:10.1021/je900444h).

Experiment: mn = molality of the nth substance listed, in mol/kg
Settings: 101 kPa, Liquid; for mass density: Vibrating tube method; for viscosity: Capillary tube (Ostwald / Ubbelohde) method

CNC(=O)NC [1,3-dimethylurea] + O
Settings | mass density, 283.15 K [kg/m3] | mass density, 288.15 K [kg/m3] | mass density, 293.15 K [kg/m3] | mass density, 298.15 K [kg/m3] | viscosity, 288.15 K [mPa·s] | viscosity, 293.15 K [mPa·s] | viscosity, 298.15 K [mPa·s]
m1 = 0.0033 | 999.7 | 999.1 | 998.2 | 997.1 | 1.173 | 1.035 | 0.9187
m1 = 0.0331 | 1000 | 999.4 | 998.5 | 997.3 | 1.187 | 1.045 | 0.929
m1 = 0.0995 | 1000.6 | 1000 | 999 | 997.9 | 1.212 | 1.066 | 0.9456
m1 = 0.1669 | 1001.2 | 1000.5 | 999.6 | 998.4 | 1.232 | 1.081 | 0.9603
m1 = 0.2354 | 1001.8 | 1001.1 | 1000.2 | 999 | 1.243 | 1.094 | 0.9716
m1 = 0.3039 | 1002.4 | 1001.7 | 1000.8 | 999.5 | 1.255 | 1.104 | 0.9789
m1 = 0.3387 | 1002.7 | 1002 | 1001 | 999.8 | 1.27 | 1.117 | 0.9944
m1 = 0.4997 | 1004.2 | 1003.4 | 1002.4 | 1001.1 | – | – | –
m1 = 0.7491 | 1006.5 | 1005.6 | 1004.5 | 1003.2 | 1.402 | 1.228 | 1.084
m1 = 1.001 | 1008.7 | 1007.8 | 1006.6 | 1005.2 | – | – | –
m1 = 1.08 | 1009.4 | 1008.5 | 1007.3 | 1005.8 | – | – | –
m1 = 1.5 | 1013.2 | 1012.1 | 1010.7 | 1009.2 | – | – | –
m1 = 1.923 | 1016.8 | 1015.5 | 1014 | 1012.3 | 1.831 | 1.581 | 1.379
m1 = 2.885 | 1024.6 | 1023 | 1021.2 | 1019.2 | 2.225 | 1.902 | 1.649
m1 = 4.005 | 1032.6 | 1030.7 | 1028.5 | 1026.3 | 2.746 | 2.325 | 1.998
m1 = 5.304 | 1040.7 | 1038.4 | 1035.9 | 1033.3 | 3.342 | 2.805 | 2.382
m1 = 6.862 | 1048.7 | 1046 | 1043.3 | 1040.4 | 4.179 | 3.464 | 2.921
m1 = 8.726 | 1056.3 | 1053.3 | 1050.2 | 1047 | 5.242 | 4.27 | 3.535
m1 = 11.02 | 1063.4 | 1060.1 | 1056.8 | 1053.4 | 6.533 | 5.262 | 4.342
m1 = 15.65 | 1072.5 | 1068.9 | 1065.3 | 1061.6 | 9.3 | 7.377 | 5.955
m1 = 23.15 | 1079.6 | 1075.7 | 1071.9 | – | 14.49 | 11.22 | 8.8
